Measurements from paper PMC7857491, “Quantification and characterization of the 5′ exonuclease activity of the lysosomal nuclease PLD3 by a novel cell-based assay” (The Journal of Biological Chemistry, 2020).

Target: Phospholipase D3 (PLD3) (Homo sapiens, UniProt Q8IV08)
Sequence (Q8IV08 whole entry): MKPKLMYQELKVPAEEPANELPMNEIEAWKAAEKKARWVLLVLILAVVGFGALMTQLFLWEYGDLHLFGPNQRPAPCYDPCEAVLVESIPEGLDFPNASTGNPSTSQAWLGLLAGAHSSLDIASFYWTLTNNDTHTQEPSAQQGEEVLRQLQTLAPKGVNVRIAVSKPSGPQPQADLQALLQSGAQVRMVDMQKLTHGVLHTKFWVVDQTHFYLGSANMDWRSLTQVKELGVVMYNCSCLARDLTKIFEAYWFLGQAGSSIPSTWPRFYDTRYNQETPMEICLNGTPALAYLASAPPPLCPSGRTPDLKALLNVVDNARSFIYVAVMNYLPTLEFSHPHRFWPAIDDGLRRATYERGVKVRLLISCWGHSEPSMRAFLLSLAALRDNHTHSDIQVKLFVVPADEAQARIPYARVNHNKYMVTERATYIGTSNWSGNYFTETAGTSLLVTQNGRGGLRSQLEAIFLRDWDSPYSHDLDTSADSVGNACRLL

Work on `[O]=[V]([OH])([OH])[OH]` [orthovanadate] yielded an IC50 of 10 µM.
